# According to PubChem BioAssay (NCI):
#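 Tested at 5 concentrations; 48 h exposure; 96-well plates; endpoints linearly interpolated, else capped at highest concentration. Abbreviation: GI50, concentration required for 50% inhibition of growth. The concentration for full growth arrest is given as TGI.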
# Legend:
# Experiment in all cases: DTP human tumour cell line panel, 48 h
# HCT-116 colon = system: HCT-116 colon
# UACC-62 melanoma = system: UACC-62 melanoma
# HT29 colon = system: HT29 colon
# SN12C renal = system: SN12C renal
# SK-MEL-28 melanoma = system: SK-MEL-28 melanoma
# UO-31 renal = system: UO-31 renal
# OVCAR-8 ovarian = system: OVCAR-8 ovarian
# HCC-2998 colon = system: HCC-2998 colon
# A498 renal = system: A498 renal
# NCI-H226 lung = system: NCI-H226 lung
Structure (SMILES),TGI (HCT-116 colon) [µM],TGI (UACC-62 melanoma) [µM],TGI (HT29 colon) [µM],TGI (SN12C renal) [µM],TGI (SK-MEL-28 melanoma) [µM],TGI (UO-31 renal) [µM],TGI (OVCAR-8 ovarian) [µM],GI50 (HCC-2998 colon) [µM],TGI (HCC-2998 colon) [µM],TGI (A498 renal) [µM],TGI (NCI-H226 lung) [µM],GI50 (HCT-116 colon) [µM],GI50 (HT29 colon) [µM],GI50 (SN12C renal) [µM],GI50 (SK-MEL-28 melanoma) [µM],GI50 (A498 renal) [µM],GI50 (UO-31 renal) [µM],GI50 (NCI-H226 lung) [µM],GI50 (OVCAR-8 ovarian) [µM]
O=C1C(Cl)N(c2ccc(Cl)cc2)C1c1c[nH]c2ccccc12 (stereo unspecified),28.2,68.8,37.5,36,96.5,35,> 100,,,,,,,,,,,,
Oc1cn(-c2ccc(Cl)cc2)nc1-c1nnc(-c2ccccc2)o1,1.14,> 51.1,27.6,> 57,53.1,31.9,14.2,0.739,5.91,56.3,30.7,,,,,,,,
Cc1cc(C)n(C(=C(C(Cl)=C(Cl)Cl)[N+](=O)[O-])n2nc(C)cc2C)n1,14.5,14.9,11.5,15.9,19.7,11.3,9.22,,12.5,8.59,26,,,,,,,,
O=c1cnn(C/C=C/CBr)c(=O)[nH]1,,,29.2,41.6,41.9,28.8,54,,34.7,31.7,34.8,,,,,,,,
NS(=O)(=O)c1ccc(N=Nc2nc3[nH]c(=O)[nH]c(=O)c3[nH]2)cc1,> 100,> 100,> 100,> 100,> 100,> 100,> 100,,> 100,> 100,> 100,,,,,,,,
CC1=CC(C)C/C=C/C2C3OC3(C)C(C)C3C(Cc4c[nH]c5ccccc45)NC(=O)C23C(=O)C=CC(=O)C1O (stereo unspecified),8.4,29.1,6.66,30.7,38.2,6.05,54.3,,21.7,0.935,32,,,,,,,,
CCCCN(CCCC)CC(O)c1cc(-c2ccc(C(F)(F)F)cc2)nc(-c2ccc(C(F)(F)F)cc2)c1 (stereo unspecified),> 100,> 100,> 100,> 100,> 100,> 100,> 100,,65.6,> 100,,,,,,,,,
O=C(O)c1ccc(Nc2c3ccccc3nc3ccccc23)cc1,> 100,> 100,> 100,> 100,> 100,> 100,> 100,,> 100,> 100,> 100,,,,,,,,
CC(C)(C)[Si](OC1CC(n2cnc3c(N)ncnc32)OC1CO)(c1ccccc1)c1ccccc1 (stereo unspecified),31.3,,30.2,43.3,41.1,68.1,33.3,,> 100,32.9,27.1,,,,,,,,
COc1ccc(C2COc3cc(OC(C)=O)c(OC(C)=O)cc3C2)cc1 (stereo unspecified),47.3,43.5,56.1,32.9,46.9,40.6,44.9,,48.3,8.32,52.9,,,,,,,,
c1nc(OCC2CCCCC2)c2[nH]cnc2n1,> 100,> 100,> 100,> 100,> 100,> 100,> 100,,> 100,,> 100,,,,,,,,
COc1ccc(N2C(=O)/C(=C(\C)c3cc4ccccc4oc3=O)N=C2c2cc([N+](=O)[O-])ccc2Cl)cc1,> 100,> 100,> 100,> 100,> 100,> 100,> 100,,> 100,82.6,> 100,,,,,,,,
O=C(O)CC(CC(=O)O)C(=O)O,> 100,> 100,> 100,> 100,> 100,> 100,> 100,,> 100,> 100,> 100,,,,,,,,
FC(F)(F)c1ccc(N=C/C=C(/Nc2ccc(C(F)(F)F)cc2)c2ccc(Cl)cc2)cc1,24.5,15.6,24.8,26.3,33.4,> 100,39,,,,32.3,,,,,,,,
CC(=O)N(C)c1ccc(Nc2cc(C)[nH]c3ccc4ncnc4c23)cc1,16.5,31.8,34,34.9,36.5,56.3,21.5,,22.3,25.2,19.5,,,,,,,,
CCOc1cc2c(OCc3ccccc3)cc3c4cc(OC)c(OC)cc4c[n+](C)c3c2cc1OC,,,11.1,> 100,,> 80.4,5.6,,21.6,> 76.3,9.71,,,,,,,,
CN(C)CCCNC(=O)c1cc2[nH]c3c(cnc4ccc([N+](=O)[O-])cc43)c(=O)c2n1C,20.1,,18.6,35.4,33.9,32.1,43.2,15.6,29,> 100,> 100,6.8,5.93,20.8,19.7,55.1,17,49.8,20.2
